Measurements as given in paper PMC4821887, “Identification of chemicals that mimic transcriptional changes associated with autism, brain aging and neurodegeneration” (Nature Communications, 2016).

Tested on: mouse cortical cultures
Assay: RNA-seq differential expression (DESeq) against matched vehicle
Type: cell-based
Parameters: key to MeanFenamidone Bcl11b / MeanFenamidone Slc12a4 / MeanFenamidone Abca1 / MeanFenamidone Hmox1 / MeanFenamidone Il1rap / MeanFenamidone Cyba / MeanFenamidone Narf / MeanFenamidone Bnip3 / MeanFenamidone Amotl2 / MeanFenamidone Gad2 / MeanFenamidone Vsnl1 / MeanFenamidone Fam178a: DESeq mean of counts over RefSeq exons
Protocol: Figure 4 Cluster 2 chemicals alter expression of a common set of genes. […] RNA-seq was performed in quadruplicate after treating cortical cultures with fenamidone (10 μM) or pyraclostrobin (0.1 μM) for 24 h (n=3 biological replicates) and compared with matched vehicle controls using DESeq to detect differentially expressed genes, listed in Supplementary Data 4.
Cultures were treated with the non-cytotoxic dose of each chemical, by exchanging half of the original medium with chemicals at 2 × concentration in prewarmed feeding medium, on DIV 7 for 24 h in 12-well plates at a density of 5 × 10^5 cells per well. RNA was isolated using RNeasy plus mini kit (Cat. #74134, Qiagen). […]. Samples were further assessed for quality using either an Agilent Bioanalyzer 2100 or TapeStation 2200 to obtain a RIN. RIN values exceeding 7 were used for sequencing. RNA samples were used to generate and barcode complementary DNA libraries using the TruSeq RNA Library Preparation Kit at the UNC High Throughput Sequencing Facility. Pools of 24 multiplexed samples were sequenced per lane on an Illumina HiSeq 2500 using 50-bp paired-end reads.
RNA-seq reads were filtered using TagDust and aligned to the reference mouse genome (mm9) with TopHat using default parameters. Reads aligning to ribosomal RNA genes were removed. Transcript abundance was estimated by computing Reads per kilobase per million mapped reads (RPKM) using RefSeq gene models aggregated by gene symbol. For differential expression analyses, raw counts over RefSeq exons were used, and then were compared across samples using DESeq[62].

CSC1=N[C@@](C)(c2ccccc2)C(=O)N1Nc1ccccc1 [fenamidone]
Differentially expressed genes (DESeq) compared between the two fungicides (fenamidone 10 μM or pyraclostrobin 0.1 μM, 24 h): up- and downregulate a largely overlapping set of genes
MeanFenamidone (DESeq mean normalized counts) (gene 2810011L19Rik, Fenamidone, 4 reps, vs matched vehicle): 45.3905
MeanFenamidone (gene 3632451O06Rik): 64.8489
log2FoldChange (gene 3632451O06Rik): -1.594
MeanFenamidone (gene 4931428F04Rik): 315.322
log2FoldChange (gene 4931428F04Rik): -1.331
MeanFenamidone (gene 4933426M11Rik): 495.966
log2FoldChange (gene 4933426M11Rik): 1.2253
MeanFenamidone 9930013L23Rik (gene 9930013L23Rik, DESeq mean, 4 reps): 645.322
log2FoldChange 9930013L23Rik (gene 9930013L23Rik, vs vehicle, 4 reps): 2.2987
MeanFenamidone AF357359 (gene AF357359, DESeq mean, 4 reps): 31.2414
log2FoldChange AF357359 (gene AF357359, vs vehicle, 4 reps): -2.02
MeanFenamidone Abca1 (gene Abca1, DESeq mean, 4 reps): 1327.24
log2FoldChange Abca1 (gene Abca1, vs vehicle, 4 reps): 1.708
MeanFenamidone Acadl (gene Acadl, DESeq mean, 4 reps): 174.046
log2FoldChange Acadl (gene Acadl, vs vehicle, 4 reps): 2.185
MeanFenamidone Acadvl (gene Acadvl, DESeq mean, 4 reps): 272.079
log2FoldChange Acadvl (gene Acadvl, vs vehicle, 4 reps): 1.576
MeanFenamidone Acsbg1 (gene Acsbg1, DESeq mean, 4 reps): 241.134
log2FoldChange Acsbg1 (gene Acsbg1, vs vehicle, 4 reps): 1.737
MeanFenamidone Acta2 (gene Acta2, DESeq mean, 4 reps): 2838.59
log2FoldChange Acta2 (gene Acta2, vs vehicle, 4 reps): 3.4285
MeanFenamidone Actn1 (gene Actn1, DESeq mean, 4 reps): 711.955
log2FoldChange Actn1 (gene Actn1, vs vehicle, 4 reps): 2.284
MeanFenamidone Adamts5 (gene Adamts5, DESeq mean, 4 reps): 85.7871
log2FoldChange Adamts5 (gene Adamts5, vs vehicle, 4 reps): 2.142
MeanFenamidone Adarb2 (gene Adarb2, DESeq mean, 4 reps): 8.295
log2FoldChange Adarb2 (gene Adarb2, vs vehicle, 4 reps): -3.192
MeanFenamidone Agap2 (gene Agap2, DESeq mean, 4 reps): 683.65
log2FoldChange Agap2 (gene Agap2, vs vehicle, 4 reps): -1.416
MeanFenamidone Ahnak (gene Ahnak, DESeq mean, 4 reps): 1224
log2FoldChange Ahnak (gene Ahnak, vs vehicle, 4 reps): 2.684
MeanFenamidone Ajuba (gene Ajuba, DESeq mean, 4 reps): 246.575
log2FoldChange Ajuba (gene Ajuba, vs vehicle, 4 reps): 2.23
MeanFenamidone (gene Akap2): 757.95
log2FoldChange (gene Akap2): 1.126
MeanFenamidone Aldh4a1 (gene Aldh4a1, DESeq mean, 4 reps): 305.431
log2FoldChange Aldh4a1 (gene Aldh4a1, vs vehicle, 4 reps): 1.584
MeanFenamidone Amotl1 (gene Amotl1, DESeq mean, 4 reps): 463.485
log2FoldChange Amotl1 (gene Amotl1, vs vehicle, 4 reps): 1.802
MeanFenamidone Amotl2 (gene Amotl2, DESeq mean, 4 reps): 666.038
log2FoldChange Amotl2 (gene Amotl2, vs vehicle, 4 reps): 1.759
MeanFenamidone (gene Anxa2): 244.58
log2FoldChange (gene Anxa2): 2.151
MeanFenamidone Anxa3 (gene Anxa3, DESeq mean, 4 reps): 244.534
log2FoldChange Anxa3 (gene Anxa3, vs vehicle, 4 reps): 3.475
MeanFenamidone Arhgap18 (gene Arhgap18, DESeq mean, 4 reps): 128.165
log2FoldChange Arhgap18 (gene Arhgap18, vs vehicle, 4 reps): 1.989
MeanFenamidone (gene Arhgdig): 118.591
log2FoldChange (gene Arhgdig): -1.355
MeanFenamidone (gene Arhgef40): 160.321
log2FoldChange (gene Arhgef40): 1.457
MeanFenamidone Asah1 (gene Asah1, DESeq mean, 4 reps): 348.017
log2FoldChange Asah1 (gene Asah1, vs vehicle, 4 reps): 1.772
MeanFenamidone Ass1 (gene Ass1, DESeq mean, 4 reps): 83.2354
log2FoldChange Ass1 (gene Ass1, vs vehicle, 4 reps): 3.013
MeanFenamidone Atf3 (gene Atf3, DESeq mean, 4 reps): 64.246
log2FoldChange Atf3 (gene Atf3, vs vehicle, 4 reps): 2.3746
MeanFenamidone Atf5 (gene Atf5, DESeq mean, 4 reps): 765.032
log2FoldChange Atf5 (gene Atf5, vs vehicle, 4 reps): 1.876
MeanFenamidone Atl1 (gene Atl1, DESeq mean, 4 reps): 97.9838
log2FoldChange Atl1 (gene Atl1, vs vehicle, 4 reps): -1.537
MeanFenamidone Axl (gene Axl, DESeq mean, 4 reps): 322.064
log2FoldChange Axl (gene Axl, vs vehicle, 4 reps): 2.208
MeanFenamidone (gene Bak1): 236.594
log2FoldChange (gene Bak1): 1.306
MeanFenamidone Bcl11b (gene Bcl11b, DESeq mean, 4 reps): 202.325
log2FoldChange Bcl11b (gene Bcl11b, vs vehicle, 4 reps): -1.501
MeanFenamidone Bhlhe41 (gene Bhlhe41, DESeq mean, 4 reps): 115.206
log2FoldChange Bhlhe41 (gene Bhlhe41, vs vehicle, 4 reps): 2.168
MeanFenamidone (gene Bmp1): 153.886
log2FoldChange (gene Bmp1): 1.3853
MeanFenamidone Bnip3 (gene Bnip3, DESeq mean, 4 reps): 102.453
log2FoldChange Bnip3 (gene Bnip3, vs vehicle, 4 reps): -1.924
MeanFenamidone (gene Bnip3l): 236.54
log2FoldChange (gene Bnip3l): -1.119
MeanFenamidone (gene Bsn): 443.744
log2FoldChange (gene Bsn): -1.148
